Experimental findings from patent US12097215B2, “Antibacterial composition and its use in treating bacterial infections” (Vector Vitale IP LLC, priority 2017, dated 2024) are described below.

The structures appear in SMILES notation. Values after ≈ are worked out from the molar mass of the structure shown. Where two headings read alike, the source gives them in different places. Marks after values point to notes of the source that are not given here.

The test system of experiment [1] is P. aeruginosa ATCC 27859. As to the kind of experiment: MIC of deuterium-depleted water by serial dilutions in normal saline solution. In kind it is cell-based. Particulars: basic solution, 10^4, 10^6, 10^8 cells/ml; text names ATCC 27853. As to the method: (§1) The minimum inhibitory concentration (MIC) of deuterium-depleted water was determined by serial dilutions in normal saline solution. Reference strains of E. coli ATCC 25922 and P. aeruginosa ATCC 27859 were used as test cultures. For inoculation, microbial suspension equivalent to a 0.5 standard McFarland (1.5×10^8 cells/ml) was used. Then the dilutions with normal saline solution were prepared so that the concentration of microorganisms reached approximately 10^4 cells/ml. The test cultures were previously grown for 24 hours at 37° C. One-tenth of a milliliter (0.1 ml) of the suspension was placed into each test tube containing 4 ml of the medium with the investigative active substance at a certain concentration (without deuterium-depleted water in the control). The tubes were incubated in an incubator at 37° C. for 24 hours. After incubation the inoculum from each tube was plated on Mueller-Hinton agar medium for P. aeruginosa and on Endo for E. coli and incubated at 37° C. for another 24 hours. The results were evaluated based on the presence of bacterial growth (turbidity) in the nutrient broth and, if necessary, by using other additional known bacteriological tests. The first few tubes remained transparent due to the antimicrobial effect of the study substance. […] The results are shown in the table below and illustrated in FIGS. 5b and 5c.

Experiment [2] relates to E. coli ATCC 25922. The experiment is described as above. Conditions: basic solution, 10^4, 10^6, 10^8 cells/ml. In kind it is cell-based. The method, then: as §1
Experiment [3] deals with P. aeruginosa ATCC 27853. The experiment can be described thus: MIC by serial dilutions in broth (visible growth).
Experiment [4] relates to E. coli ATCC 25922. The experiment can be described thus: MIC by serial dilutions in broth (visible growth). In kind it is cell-based.
In experiment [5] the test system is E. coli ATCC 25922. The experiment can be described thus: MBC by plating tube contents on Mueller-Hinton medium. It counts as cell-based. The method, then:
(§2) To evaluate the bactericidal action of the antibacterial composition based on light isotope ^64Zne the minimum bactericidal concentration (MBC) was determined by plating out 0.1 ml of the contents of each tube containing the antibacterial composition on Mueller-Hinton medium. The incubation was at 37° C. for 24 h.
(§3) The MBC of the test samples was determined as the lowest concentration at which there was no growth on Mueller-Hinton agar medium.

Experiment [6] deals with S. aureus ATCC 25923. Described as above. In kind it is cell-based. As to the method:
as §2, §3

Experiment [7] concerns P. aeruginosa ATCC 27853. The experiment is described as above. It counts as cell-based. The method, then:
as §2, §3

For experiment [8], the system named is S. aureus ATCC 25923. As to the kind of experiment: MIC by serial dilutions in broth (visible growth). In kind it is cell-based.
Protocol: The minimum inhibitory concentration (MIC) and minimum bactericidal concentration (MBC) of the antibacterial composition enriched for the light isotope zinc ^64Zne was evaluated in the experiment. […] S. aureus ATCC 25923, E. coli ATCC 25922 and P. aeruginosa ATCC 27853 were used as test cultures.
The studies were carried out using the method of serial dilutions in broth. To determine sensitivity of microorganisms to the antibacterial composition, 0.5 ml of broth was placed into each tube. The number of tubes was determined based on the desired number of dilutions and was increased by one for the “negative” control (no test composition). Series of two-fold serial dilutions of the test variants of the antibacterial composition were used and concentrations ranging from 450 mcg ^64Zne/ml to 0.000107 mcg ^64Zne/ml were obtained.
Reference test strains of S. aureus ATCC 25923, E. coli ATCC 25922 and P. aeruginosa ATCC 27853 were incubated in Mueller-Hinton liquid broth at 37° C. for 24 hours. Standard bacterial suspension equivalent to 0.5 McFarland standard diluted 100-fold with the broth was used for the inoculation of the tubes after which the concentration of microorganism in it was approximately 10^6 CFU/ml.
0.5 ml of inoculum was added to each tube containing 0.5 ml of the appropriate dilution of a solution of the ^64Zn-enriched salt of interest. […] The final concentration of the microorganism in each tube was approximately 5×10^5 CFU/ml.
The tubes were incubated at 35° C. in air for 16-20 or 20-24 hours (depending on the bacterial strain).
To determine the presence of microorganism growth the test tubes with inoculum were viewed under transmitted light. Transmitted light was measured by spectrophotometry. The growth of culture in the presence of antibacterial compositions based on ^64Zne was compared with the reference test tube (“negative” control), containing the original inoculum and stored in the refrigerator. The MIC was determined as the lowest concentration of ^64Zne that inhibits visible growth of the microorganism. Both gram-positive (S. aureus) and gram-negative bacteria (P. aeruginosa, E. coli) were used in the experiments described below.
That is, ^64Zne in the form of a salt was compared with a composition that contains zinc with a natural distribution of isotopes. […] Relevant samples containing salt of natural zinc with EDDA and natural zinc sulfate were used for the comparison.
The following commercial antibacterial medications were used for the study: azithromycin and ceftriaxone and norfloxacin. The initial concentration of 3000 mcg/ml was used for the samples of all the above compounds. […] Serial dilutions of the above antibacterial compounds were also prepared in the same way as for the antibacterial composition of the invention. The same pathogenic strains of S. aureus ATCC 25923, E. coli ATCC 25922, P. aeruginosa ATCC 27853 were used for the study.
Where [9] appears, read: Table 7, ^64Zne vs natural zinc.
Setting [10] is: concentration of ^64Zne, Tables 1-5.
[11] abbreviates: Table 8, ^64Zne vs natural zinc.

As to `O` [deuterium-depleted water], the “bactericidal effect (in words)” value in experiment [1] and in experiment [2] was “bactericidal effect” throughout.

For `CC[C@H]1OC(=O)[C@H](C)[C@@H](O[C@H]2C[C@@](C)(OC)[C@@H](O)[C@H](C)O2)[C@H](C)[C@@H](O[C@@H]2O[C@H](C)C[C@H](N(C)C)[C@H]2O)[C@](C)(O)C[C@@H](C)CN(C)[C@H](C)[C@@H](O)[C@]1(C)O` [azithromycin, reference compound], the MIC worked out at 1500 µg/mL (≈ 2000 µM) in experiment [3] (Pseudomonas aeruginosa, ATCC27853); 1500 µg/mL (≈ 2000 µM) in experiment [4] (Escherichia coli, ATCC25922, Table 9, commercial antibacterial agents, read-out: MIC); 188 µg/mL (≈ 250 µM) in experiment [8] (Staphylococcus aureus, ATCC25923, Table 9, commercial antibacterial agents, read-out: MIC). The MBC is below 1500 µg/mL in experiment [5] (Escherichia coli, ATCC25922, Table 10, commercial antibacterial agents, read-out: MBC); below 1500 µg/mL in experiment [6] (Staphylococcus aureus, ATCC25923, Table 10, commercial antibacterial agents, read-out: MBC); below 1500 µg/mL in experiment [7] (Pseudomonas aeruginosa, ATCC27853, Table 10, commercial antibacterial agents, read-out: MBC).

As to `O=C([O-])CC(NCCNC(CC(=O)O)C(=O)O)C(=O)[O-].[64Zn+2]` (centres unmarked) [^64Zne EDDS, ^64Zne salt of ethylenediamine-N,N′-disuccinic acid, chemical name 2-[2-[[(1)-1-carboxy-2-carboxylatoethyl]amino]ethylamino]butanedioate], in experiment [3], the “bacteriostatic activity (in words)” value is recorded as “best results”. For the same compound, the MIC in experiment [3] (setting [9]) was determined as 5.86 zinc/ml; in experiment [3] (setting [10]), 1.465 µg/mL; in experiment [4] (setting [9]) it was 0.18 zinc/ml; in experiment [4] (setting [10]) it was 0.0229 µg/mL; in experiment [8] (setting [9]), 0.73 zinc/ml; in experiment [8] (setting [10]) it was 0.366 µg/mL. Further, the visible growth result in experiment [4] (^64Zne 0.00036 mcg/ml), in experiment [4] (^64Zne 0.00072 mcg/ml), in experiment [4] (^64Zne 0.0014 mcg/ml), in experiment [4] (^64Zne 0.0029 mcg/ml), in experiment [4] (^64Zne 0.0057 mcg/ml) and in experiment [4] (^64Zne 0.011 mcg/ml) was “+” throughout. In addition, the visible growth entry in experiment [4] (^64Zne 0.023 mcg/ml), in experiment [4] (^64Zne 0.046 mcg/ml), in experiment [4] (^64Zne 0.092 mcg/ml), in experiment [4] (^64Zne 0.18 mcg/ml), in experiment [4] (^64Zne 0.37 mcg/ml) and in experiment [4] (^64Zne 0.73 mcg/ml) was “−” throughout. The visible growth entry in experiment [4] (^64Zne 1.46 mcg/ml), in experiment [4] (^64Zne 2.93 mcg/ml), in experiment [4] (^64Zne 5.86 mcg/ml), in experiment [4] (^64Zne 11.72 mcg/ml), in experiment [4] (^64Zne 23.44 mcg/ml) and in experiment [4] (^64Zne 46.88 mcg/ml) was “−” in each case. Moreover, the visible growth result in experiment [4] (^64Zne 93.75 mcg/ml) was “−”; in experiment [4] (^64Zne 187.5 mcg/ml), “−”; in experiment [4] (^64Zne 375 mcg/ml), “−”; in experiment [4] (^64Zne 750 mcg/ml) it was “−”; in experiment [4] (^64Zne 1500 mcg/ml) it was “−”; in experiment [8] (^64Zne 0.00036 mcg/ml), “+”. Also, the visible growth entry in experiment [8] (^64Zne 0.00072 mcg/ml), in experiment [8] (^64Zne 0.0014 mcg/ml), in experiment [8] (^64Zne 0.0029 mcg/ml), in experiment [8] (^64Zne 0.0057 mcg/ml), in experiment [8] (^64Zne 0.011 mcg/ml) and in experiment [8] (^64Zne 0.023 mcg/ml) was “+” throughout. Moreover, the visible growth entry is “+” in experiment [8] (^64Zne 0.046 mcg/ml); “−” in experiment [8] (^64Zne 0.37 mcg/ml); “−” in experiment [8] (^64Zne 0.73 mcg/ml); “−” in experiment [8] (^64Zne 1.46 mcg/ml); “−” in experiment [8] (^64Zne 2.93 mcg/ml); “−” in experiment [8] (^64Zne 5.86 mcg/ml). The visible growth result in experiment [8] (^64Zne 11.72 mcg/ml), in experiment [8] (^64Zne 23.44 mcg/ml), in experiment [8] (^64Zne 46.88 mcg/ml), in experiment [8] (^64Zne 93.75 mcg/ml), in experiment [8] (^64Zne 187.5 mcg/ml) and in experiment [8] (^64Zne 375 mcg/ml) was “−” throughout. Besides, in experiment [8] (^64Zne 750 mcg/ml), the visible growth entry is reported as “−”. The MBC in experiment [5] (Table 6) was 2.93* mcg ^64Zne/ml; in experiment [5] (setting [11]), 2.9296 mcg zinc/ml; in experiment [6] (Table 6) it was 0.73* mcg ^64Zne/ml; in experiment [6] (setting [11]) it was 0.7324 mcg zinc/ml; in experiment [7] (Table 6), 375 mcg ^64Zne/ml; in experiment [7] (setting [11]), 375 mcg zinc/ml. In addition, the “bactericidal activity (in words)” value in experiment [7] is recorded as “satisfactory bactericidal activity”.
